Reference: ChEMBL document CHEMBL4616680, “Shedding X-ray Light on the Role of Magnesium in the Activity of Mycobacterium tuberculosis Salicylate Synthase (MbtI) for Drug Design” (J Med Chem, 2020)
Active and inactive are the calls of the source. No cut-off for these calls is given here.

Legend:
[1] = system: Mycobacterium tuberculosis; assay: Inhibition of siderophore production in Mycobacterium bovis BCG at 250 to 1000 mM incubated for 15 days by universal CAS assay; type: functional, organism-based; conditions: variant bovis BCG
[2] = system: Mycobacterium tuberculosis; assay: Inhibition of myco-bactins production in Mycobacterium bovis BCG at 250 to 1000 mM by universal CAS assay; type: functional, organism-based; conditions: variant bovis BCG

N#Cc1cccc(-c2ccc(C(=O)O)o2)c1 was tested, and the inhibition [1] was “Active” and the inhibition [2] was “Active”.
